Data on two molecules can be found in patent publication US20190282541A1, “USE OF ERIBULIN AND HISTONE DEACETYLASE INHIBITORS IN THE TREATMENT OF CANCER” (EISAI R&D MANAGEMENT CO., LTD., priority 2016, published 2019).

Structures are written as SMILES. Read-outs that look alike come from different tables or passages of the source.

Holding throughout (assay type): cell-based
In test [1] the test system is BT-549 human breast cancer cells. Nature of the test: Single agent growth inhibition (Cell Titer-Glo proliferation). As to conditions: 72 hours. The protocol: (§1) The growth inhibitory activities of two test agents, eribulin and entinostat, were determined alone and in combination against 12 human breast cancer cell lines (Table 1). The human breast tumor cell lines were selected based on their profile characteristics of being either human epidermal growth factor receptor 2 negative (Her2') and estrogen receptor positive (ER^+) or Triple Negative (Her2^-, ER^-, and progesterone receptor negative [PR^-]). Activities of individual agents were determined by curve-fitting the concentration of agent that inhibits cell growth by 50% compared to the control cells in a four parameter-logistic equation, whereas agent combinations were determined by the method of (Chou and […] Advances in Enzyme Regulation 22:27-55, 1984), and analyzed with CalcuSyn software. Fa, the fraction of affected drug targets at a given drug concentration, was calculated from the fractional decrease. Each agent was tested individually to determine the median-effect dose, Dm, (or EC50, the 50% effect concentration). For combination treatments, drug solutions were mixed at ratios providing approximately equipotent concentrations based upon relative Dm, and this mixture was serially diluted to yield test concentrations. The Combination Index (CI), computed from ratios of the concentrations of mixed and unmixed drugs that produce the same Fa, indicates whether inhibition is additive, synergistic, or antagonistic. In whole-cell assays, inhibitor interactions are complex (mixed), rather than mutually exclusive (purely competitive) or nonexclusive (purely non-competitive), CI values for both types of inhibition are reported to define the range of possible values. […] Finally, in Experiment 3, we determined the antiproliferative activity of the study agents in combination against the panel of human tumor cell lines. […] We further analyzed quadruplicate samples over a seven point dose response range. MCF-7 human breast cancer cells were cultured in RPMI 1640 medium supplemented with 10% fetal bovine serum (FBS), 2 mM glutamine, 10 mM 4-(2-hydroxyethyl)-1-piperazineethanesulfonic acid (HEPES), 0.075% sodium bicarbonate, 100 units/mL sodium penicillin G, 100 μg/mL streptomycin sulfate and 25 μg/mL gentamicin. T-47D human breast cancer cells were cultured in RPMI 1640 medium supplemented with 10% FES. 4.5 g/L glucose. 2 mM glutamine. 10 mM HEPES, 0.2 units/mL Insulin, 1 mM sodium pyruvate, 100 units/mL sodium penicillin G, 100 streptomycin sulfate and 25 μg/mL gentamicin, ZR-75-1 human breast cancer cells were cultured in RPMI 1640 medium supplemented with 10% FBS, 4.5 g/L. glucose, 2 mM glutamine, 10 […] HEPES, 1 mM sodium pyruvate, 100 units/mL sodium penicillin G, 100 μg/mL streptomycin sulfate and 25 μg/mL gentamicin. […] HCC70 human breast cancer cells were cultured in RPMI1640 medium supplemented with 10% FBS, 2 mM glutamine, 4.5 g/L glucose, 10 mM HEPES, 0.075% sodium bicarbonate, 1 mM sodium pyruvate, 100 units/mL sodium penicillin 0, 100 μg/mL streptomycin sulfate and 25 μg/mL gentamicin. […] The tumor cells were cultured in tissue culture flasks in a humidified incubator at 37° C., in an atmosphere of 5% CO2 and 95% air; except for the MDA-MB-134-VI, MDA-MB-175-VII, MDA-MB-415, and MDA-MB-436, these cells were cultured at 37° C. in 100% air and no additional CO2. The selected human tumor cells were seeded at 2,000-5,000 cells/well in a clear polystyrene 96-well microculture plate (Corning® Costar® 96-well flat bottom plate, Cat. No. 3997) in a total volume of 90 μL per well. After 24 hours of incubation in a humidified incubator at 37° C. with 5% CO2 and 95% air (except for the MDA-MB-134-VI, MDA-MB-175-VII, MDA-MB-415, and MDA-MB-436, these cells were cultured at 37° C. in 100% air, no additional CO2), 10 μL of the 10× drug prep was added. […]

Test [2] relates to HCC1806 human breast cancer cells. The test is described as above. As to conditions: 72 hours. How it is done:
as §1

Test [3] relates to HCC70 human breast cancer cells. The description is as above. To be noted: 72 hours. The protocol:
as §1

Test [4] has as its system Hs578t human breast cancer cells. Described as above. To be noted: Hs-578T, 72 hours. The protocol:
as §1

Test [5] has as its system MCF-7 human breast cancer cells. The test is described as above. As to conditions: 72 hours. How it is done: as §1
The test system of test [6] is MDA-MB-134VI human breast cancer cells. The description is as above. As to conditions: 144 hours. How it is done: as §1
The test system of test [7] is MDA-MB-175VII human breast cancer cells. Described as above. As to conditions: 144 hours. The protocol: as §1
The subject of test [8] is MDA-MB-231 human breast cancer cells. Described as above. To be noted: 72 hours. The protocol: as §1
In test [9] the test system is MDA-MB-415 human breast cancer cells. The description is as above. To be noted: 144 hours. How it is done: as §1
Test [10] has as its system MDA-MB-436 human adenocarcinoma derived cancer cells. The description is as above. To be noted: 144 hours. How it is done: as §1
Test [11] has as its system T-47D human breast cancer cells. The test is described as above. As to conditions: T47D, 72 hours. How it is done: as §1
Test [12] has as its system ZR-75-1 human breast cancer cells. The test is described as above. To be noted: Experiment 2, narrow concentration range, 72 hours. The protocol:
as §1

Test [13] concerns panel of 12 human breast cancer cell lines. Nature of the test: Single agent inhibitory activity across the cell line panel. As to conditions: all 12 cell lines, Experiments 1 and 2. How it is done:
The growth inhibitory activities of two test agents, eribulin and entinostat, were determined alone and in combination against 12 human breast cancer cell lines (Table 1). The human breast tumor cell lines were selected based on their profile characteristics of being either human epidermal growth factor receptor 2 negative (Her2') and estrogen receptor positive (ER^+) or Triple Negative (Her2^-, ER^-, and progesterone receptor negative [PR^-]). Activities of individual agents were determined by curve-fitting the concentration of agent that inhibits cell growth by 50% compared to the control cells in a four parameter-logistic equation, whereas agent combinations were determined by the method of (Chou and […] Advances in Enzyme Regulation 22:27-55, 1984), and analyzed with CalcuSyn software. Fa, the fraction of affected drug targets at a given drug concentration, was calculated from the fractional decrease. […] Finally, in Experiment 3, we determined the antiproliferative activity of the study agents in combination against the panel of human tumor cell lines. […] We further analyzed quadruplicate samples over a seven point dose response range. […] The medium/Cell Titer-Glo® reagent was transferred to a white polystyrene 96-well microculture plate (Corning® Costar® 96-well flat bottom plate, Cat. No. 3917) before determining luminescence on the Tecan GENios microplate. […]

Where [14] appears, read: Experiment 1, wide concentration range, read-out: Wide range IC50.
Setting [15] is: Experiment 2, narrow concentration range, read-out: Narrow range IC50.
The mark [16] stands for this setting: MCF7, Experiment 1, wide concentration range, read-out: Wide range IC50.
Where [17] appears, read: MCF7, Experiment 2, narrow concentration range, read-out: Narrow range IC50.

A word on the IC50: it is the concentration that inhibits the measured activity by half. Turning to `Nc1ccccc1NC(=O)c1ccc(CNC(=O)OCc2cccnc2)cc1` [entinostat, pyridin-3-yl methyl N-[[4-[(2-aminophenyl)carbarnoyl]phenyl]methyl carbamate], the IC50 was 1250 nM in test [1] (setting [14]); 1500 nM in test [1] (setting [15]); 550 nM in test [2] (setting [14]); 1220 nM in test [2] (setting [15]); 1450 nM in test [3] (setting [14]); 1110 nM in test [3] (setting [15]). The IC50 in test [4] (setting [14]) was 1100 nM; in test [4] (setting [15]) it was 1400 nM; in [5] (setting [16]), 540 nM; in test [5] (setting [17]), 570 nM; in [6] (setting [14]), 390 nM; in [6] (setting [15]), 800 nM. Also, the IC50 in test [7] (setting [14]) was 210 nM; in test [7] (setting [15]) it was 1170 nM; in [8] (setting [14]) it was 610 nM; in test [8] (setting [15]) it was 940 nM; in [9] (setting [14]) it was 92.1 nM; in [9] (setting [15]) it was 140 nM. Also, the IC50 in test [10] (setting [14]) was found to be 810 nM; in test [10] (setting [15]), 1370 nM; in [11] (setting [14]), 1600 nM; in test [11] (setting [15]), 1780 nM; in test [12], 4950 nM.

As for `C=C1C[C@@H]2CC[C@@]34C[C@H]5O[C@H]6[C@@H](O3)[C@H]3O[C@H](CC[C@@H]3O[C@H]6[C@H]5O4)CC(=O)C[C@@H]3[C@@H](OC)[C@@H](C[C@H](O)CN)O[C@H]3C[C@H]3O[C@@H](CC[C@@H]1O2)C[C@@H](C)C3=C` [eribulin], the 50% inhibitory concentration (IC50) in test [1] (setting [14]) stood at 0.23 nM; in [1] (setting [15]), 0.39 nM; in test [2] (setting [14]), 0.25 nM; in test [2] (setting [15]) it was 0.3 nM; in test [3] (setting [14]) it was 0.35 nM; in [4] (setting [14]), 0.39 nM. For the same molecule, the IC50 in test [4] (setting [15]) came to 0.67 nM; in test [5] (setting [16]) it was 0.22 nM; in test [5] (setting [17]), 0.37 nM; in test [6] (setting [14]), 0.62 nM; in test [6] (setting [15]) it was 0.88 nM; in [7] (setting [14]), 0.55 nM. Further, the IC50 amounted to 1.09 nM in test [7] (setting [15]); 0.26 nM in [8] (setting [14]); 0.52 nM in [8] (setting [15]); 0.64 nM in [9] (setting [14]); 0.57 nM in test [9] (setting [15]); 2.82 nM in [10] (setting [14]). The figures for the IC50 in test [10] (setting [15]) and in test [11] (setting [15]) were 3.2 nM and 1.15 nM, respectively. Also, in [13], the “Relative potency of single agents” value is reported as “more potent than entinostat in all cell lines”.
